Patent US11519025B2, “Cation chelator hot start” (priority 2014, dated 2022)
Values joined by “and” are separate entries in the source; they are usually repeats but may differ in a detail not shown here. Equal entries are not always repeated. “Also recorded” adds a separate entry of the source. Structures can show the parent of a compound that is named as a salt. Where two headings read alike, the source gives them in different places.

Assays:
[1] = vendor product list; cited from earlier work
[2] = molecular target: DNase, a nuclease isolated from bovine pancreas (Bos taurus, UniProt P00639); settings: for DNase enzymatic activity: 100 μM EDTA
Taq = Taq (Thermus aquaticus, UniProt P19821); test: Endpoint PCR (HugI, 1.2 kb genomic target) with and without EGTA, agarose gel; assay type: biochemical; settings: 5 mM EGTA, 5-10 mM Mg, compared to reactions without EGTA
Experimental: An amplification experiment was performed using a test system that is known to be prone to produce non-specific side products. A genomic DNA sequence of 1.2 kb was the target sequence. Primers HugA and HugB were used.
Reactions with and without EGTA were performed in parallel. In set A, the magnesium concentration was varied in 1 mM steps, start and end point were 5 and 10 mM respectively. In set B, the start point was 0.5 mM and the end point was 4 mM Mg. The setup is described in Table 2.
The amplification program was as follows (Table 3):
35 cycles were performed.

[3] = molecular target: T1, chemically inactivated Taq DNA polymerase (Thermus aquaticus, UniProt P19821); test: Amplification of bisulphite-treated DNA in the presence of different EGTA concentrations (residual activity of chemically inactivated Taq, Ct and HRM melting curves); assay type: biochemical
Text: The following experiments employed a system to detect the formation of primer dimers in a PCR reaction mixture using residual active Taq polymerase molecules. Herein, bisulphite-treated DNA is used as a template. As a consequence of the bisulphite treatment, which entails the chemical modification of non-methylated cytosines to uracil), said template only consists of three bases. Since bisulphite treatment only works when using single stranded DNA, the majority of DNA after completion of said bisulphite treatment is single stranded. Primers that are used for amplification of such DNA sequences are characterized by reduced complexity since they only consist of three bases.
Genomic DNA was propagated using the Qiagen REPLI g Midi Kit according to the manufacturer's protocol. Subsequently, 1 μg of said genomic DNA was used in 10 independent reactions wherein the DNA was subjected to bisulphite treatment using the EpiTect Bisulfite Kit followed by purification. The resulting DNA of each reaction was pooled and used in the subsequent amplification reactions.
The final EGTA concentration was between 0.25 and 10 mM.
One set of samples consisting of two reactions was incubated on ice for 120 min, whereas the other set of samples also consisting of two reactions was incubated at room temperature for 120 min. Subsequently both sets of samples were analyzed using the Rotor-Gene Q 5plex HRM System.

[4] = molecular target: T1, chemically inactivated Taq DNA polymerase; test: Amplification of bisulphite-treated DNA in the presence of EGTA and different magnesium concentrations; assay type: biochemical; settings: for Ct / Ct Average: 5 mM EGTA
Experimental: In the follow-up experiment said primers and said bisulphite-treated DNA were used in amplification reactions wherein the magnesium dependency was analyzed.
The final concentration of EGTA was 5 mM. The HRM master mix was supplemented with 0.1 0.6 mM magnesium.
Two sets of reactions consisting of duplicates were used in the amplification experiment. One set of samples was incubated on ice for 120 min, whereas the other set of samples was incubated at room temperature for 120 min. Subsequently the samples were analyzed using the Rotor-Gene Q 5plex HRM System.

[5] = pH-dependency of the binding constants of chelating agents; assay type: physicochemical; settings: worked out from known pK values from literature (FIG. 1)
Experimental: Tris buffer is routinely used in PCR buffers. At room temperature the pH of a Tris based PCR buffer is 8.7. […] This means that at 95° C. the pH value is 6.6. In order to select a chelating agent for PCR experiments, the pH-dependency of the binding constants of three different chelating agents, NTA; EDTA and EGTA, was investigated. Known pK values from literature for every chelating agent were used to determine the pH dependency of the complex formation (FIG. 1).

[6] = for pH of Tris based PCR buffer: room temperature
[7] = 0.25 mM EGTA, room temperature 120 min
[8] = 0.5 mM EGTA, room temperature 120 min
[9] = 0.75 mM EGTA, room temperature 120 min
[10] = 1 mM EGTA, room temperature 120 min
[11] = 1.5 mM EGTA, room temperature 120 min
[12] = 2 mM EGTA, room temperature 120 min
[13] = 4 mM EGTA, room temperature 120 min
[14] = 10 mM EGTA, room temperature 120 min
[15] = 0 mM MgCl2 added, on ice 120 min
[16] = 0 mM MgCl2 added, room temperature 120 min
[17] = 0.1 mM MgCl2, room temperature 120 min
[18] = 0.2 mM MgCl2, room temperature 120 min
[19] = 0.3 mM MgCl2, room temperature 120 min
[20] = 0.4 mM MgCl2, room temperature 120 min
[21] = 0.5 mM MgCl2, room temperature 120 min
[22] = 0.6 mM MgCl2, room temperature 120 min

Chain of DNase, a nuclease isolated from bovine pancreas (P00639 23-282): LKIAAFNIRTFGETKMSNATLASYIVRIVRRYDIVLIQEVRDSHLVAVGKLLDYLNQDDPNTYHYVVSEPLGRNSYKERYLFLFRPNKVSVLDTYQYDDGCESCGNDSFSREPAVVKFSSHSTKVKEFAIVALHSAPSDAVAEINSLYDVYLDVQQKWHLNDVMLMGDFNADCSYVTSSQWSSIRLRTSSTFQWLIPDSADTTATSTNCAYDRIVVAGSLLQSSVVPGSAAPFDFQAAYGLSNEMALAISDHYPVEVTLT
T1 sequence (P19821 whole entry): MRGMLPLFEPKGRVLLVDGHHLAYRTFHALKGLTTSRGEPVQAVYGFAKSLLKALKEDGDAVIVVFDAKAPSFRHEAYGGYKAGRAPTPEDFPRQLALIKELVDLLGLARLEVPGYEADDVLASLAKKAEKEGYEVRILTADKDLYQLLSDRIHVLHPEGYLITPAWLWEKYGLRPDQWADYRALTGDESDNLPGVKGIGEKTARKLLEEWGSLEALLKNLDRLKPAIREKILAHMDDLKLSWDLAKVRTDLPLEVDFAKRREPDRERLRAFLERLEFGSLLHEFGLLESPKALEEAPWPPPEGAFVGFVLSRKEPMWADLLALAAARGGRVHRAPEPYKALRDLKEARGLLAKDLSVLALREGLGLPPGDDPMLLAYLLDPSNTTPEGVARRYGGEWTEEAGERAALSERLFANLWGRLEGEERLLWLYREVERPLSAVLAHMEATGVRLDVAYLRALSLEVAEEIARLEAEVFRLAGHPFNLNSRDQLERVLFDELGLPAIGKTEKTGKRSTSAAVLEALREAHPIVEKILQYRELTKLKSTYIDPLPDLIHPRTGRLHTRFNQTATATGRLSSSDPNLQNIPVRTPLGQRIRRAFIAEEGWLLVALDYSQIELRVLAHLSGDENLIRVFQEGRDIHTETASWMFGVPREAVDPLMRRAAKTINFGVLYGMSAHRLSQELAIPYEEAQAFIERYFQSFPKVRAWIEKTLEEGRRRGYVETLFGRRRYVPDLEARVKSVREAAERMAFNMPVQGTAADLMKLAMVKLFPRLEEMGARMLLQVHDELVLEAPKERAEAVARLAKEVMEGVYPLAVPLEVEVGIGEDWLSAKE
Chain of Taq (P19821 whole entry): as above

In the case of O=S(=O)(O)CCN1CCN(CCO)CC1 [Buffer 7, HEPES], the pKa [1] is given as 7.50.

In the case of O=S(=O)(O)CCCN1CCN(CCO)CC1 [Buffer 5, EPPS], the pKa [1] is listed as 8.00.

In the case of O=S(=O)(O)CCN1CCN(CCO)CC1 [Buffer 8, HEPES sodium salt], the pKa [1] is listed as 7.50.

In the case of O=C(O)CN(CCN(CC(=O)O)CC(=O)O)CC(=O)O [EDTA, ethylene di amine tetra acetic acid], the DNase enzymatic activity ([2]; 42° C.) is reported as “restoring enzymatic activity” and the DNase enzymatic activity ([2]; on ice, 1, 0.5, 0.1 U DNase) is reported as “largely reduced enzymatic activity”.

In the case of O=S(=O)([O-])CCCNC(CO)(CO)CO.[Na+] [Buffer 23, TAPS sodium salt], the pKa [1] is given as 8.40.

For O=S(=O)(O)CCN1CCN(CCS(=O)(=O)O)CC1 [Buffer 17, PIPES], the pKa [1] is given as 6.80.

In the case of O=C(O)CN(CCOCCOCCN(CC(=O)O)CC(=O)O)CC(=O)O [EGTA, ethylene glycol bis(amino ethyl) N, N′-tetra acetic acid], the “specificity of PCR (side products on agarose gel)” value (Taq) is reported as “more specific as of having less side products; also recorded: results in specific PCR product”, the Ct ([3]; 0.25 mM EGTA, on ice 120 min) is reported as 25.34 and 25.51 and the “Ct Average” value ([3]; 0.25 mM EGTA, on ice 120 min) is reported as 25.43. The Ct [3, 7] was 25.2 and 25.42, the “Ct Average” value [3, 7] was 25.31 and the Ct ([3]; 0.5 mM EGTA, on ice 120 min) was 25.53 and 25.62. The “Ct Average” value ([3]; 0.5 mM EGTA, on ice 120 min) was 25.58, the Ct [3, 8] was 25.55 and 25.47 and the “Ct Average” value [3, 8] was 25.51. The Ct ([3]; 0.75 mM EGTA, on ice 120 min) was 25.78 and 25.88, the “Ct Average” value ([3]; 0.75 mM EGTA, on ice 120 min) was 25.83 and the Ct [3, 9] was 25.91 and 25.8. The “Ct Average” value [3, 9] was 25.86, the Ct ([3]; 1 mM EGTA, on ice 120 min) was 26.59 and 26.61 and the “Ct Average” value ([3]; 1 mM EGTA, on ice 120 min) was 26.55. For the same compound, the Ct [3, 10] was 26.47 and 26.5, the “Ct Average” value [3, 10] was 26.49 and the Ct ([3]; 1.5 mM EGTA, on ice 120 min) was 28.17 and 28.21. For the same compound, the “Ct Average” value ([3]; 1.5 mM EGTA, on ice 120 min) was 28.19, the Ct [3, 11] was 27.76 and 27.88 and the “Ct Average” value [3, 11] was 27.82. The Ct ([3]; 2 mM EGTA, on ice 120 min) was 30.16 and 28.53, the “Ct Average” value ([3]; 2 mM EGTA, on ice 120 min) was 29.35 and the Ct [3, 12] was 29.9 and 29.71. For the same compound, the “Ct Average” value [3, 12] was 29.81, the Ct ([3]; 4 mM EGTA, on ice 120 min) was 38.37 and 38.14 and the “Ct Average” value ([3]; 4 mM EGTA, on ice 120 min) was 38.26. The Ct [3, 13] was 37.32 and 37.02, the “Ct Average” value [3, 13] was 37.13 and the Ct [3, 14] was 35.18 and 34. The “Ct Average” value [3, 14] was 34.59, the success of amplification ([3]; EGTA concentrations exceeded 2 mM) was “successful amplification was prevented” and the “specificity of amplification and effect on Ct” value ([3]; EGTA up to a final concentration of 0.75 mM) was “increase of specificity without affecting the Ct values”. The Ct [4, 15] was 28.74 and 28.89, the “Ct Average” value [4, 15] was 28.82 and the Ct [4, 16] was 28.86 and 28.67. For the same compound, the “Ct Average” value [4, 16] was 28.77, the Ct ([4]; 0.1 mM MgCl2, on ice 120 min) was 27.82 and 27.79 and the “Ct Average” value ([4]; 0.1 mM MgCl2, on ice 120 min) was 27.81. The Ct [4, 17] was 27.53 and 27.71, the “Ct Average” value [4, 17] was 27.62 and the Ct ([4]; 0.2 mM MgCl2, on ice 120 min) was 26.85 and 27.39. The “Ct Average” value ([4]; 0.2 mM MgCl2, on ice 120 min) was 27.12, the Ct [4, 18] was 26.69 and 27.27 and the “Ct Average” value [4, 18] was 26.98. The Ct ([4]; 0.3 mM MgCl2, on ice 120 min) was 26.25 and 26.51, the “Ct Average” value ([4]; 0.3 mM MgCl2, on ice 120 min) was 26.38 and the Ct [4, 19] was 26.14 and 26.64. For the same compound, the “Ct Average” value [4, 19] was 26.39, the Ct ([4]; 0.4 mM MgCl2, on ice 120 min) was 26.01 and 26.14 and the “Ct Average” value ([4]; 0.4 mM MgCl2, on ice 120 min) was 26.08. The Ct [4, 20] was 26.06 and 26.24, the “Ct Average” value [4, 20] was 26.15 and the Ct ([4]; 0.5 mM MgCl2, on ice 120 min) was 25.81 and 25.89. For the same compound, the “Ct Average” value ([4]; 0.5 mM MgCl2, on ice 120 min) was 25.85, the Ct [4, 21] was 25.82 and 25.86 and the “Ct Average” value [4, 21] was 25.84. The Ct ([4]; 0.6 mM MgCl2, on ice 120 min) was 25.61 and 25.56, the “Ct Average” value ([4]; 0.6 mM MgCl2, on ice 120 min) was 25.59 and the Ct [4, 22] was 25.55 and 25.49. For the same compound, the “Ct Average” value [4, 22] was 25.52, the specificity of amplification ([4]; EGTA up to a final concentration of 5 mM) was “increased specificity” and the “correlation between pH value and binding constant” value [5] was “strong correlation between pH value and binding constant”. The DNase activity ([2]; 100 μM EGTA, 42° C.) was “largely restored DNase activity”, the “DNA degradation by DNase” value ([2]; 100 μM EGTA, on ice, 0.01, 0.1 and 1 U DNase, 5 and 15 min) was “almost complete inhibition of degradation” and the “DNA degradation by DNase” value ([2]; 100 μM EGTA, on ice, 1 U DNase for 15 min, compared to the sample without EGTA) was “degradation is significantly reduced”.

In the case of O=S(=O)(O)CCNC(CO)(CO)CO [Buffer 24, TES], the pKa [1] is listed as 7.50.

For NC(=O)CNCCS(=O)(=O)O [Buffer 1, ACES], the pKa [1] is listed as 6.80.

For OCC(CO)(CO)NCCCNC(CO)(CO)CO [Buffer 4, BIS-TRIS propane], the pKa [1] is listed as 6.80.

In the case of O=S(=O)(O)CCCNC(CO)(CO)CO [Buffer 22, TAPS], the pKa [1] is given as 8.40.

In the case of NC(CO)(CO)CO [Tris], the “pH of Tris buffer” value ([6]; 95° C.) is reported as 6.6, the “pH of Tris based PCR buffer” value [6] is reported as 8.7 and the “pH of Tris based PCR buffer” value ([6]; listed as Tris buffer) is reported as “around 8.7”.

For O=S(=O)(O)CCN(CCO)CCO [Buffer 2, BES], the pKa [1] is listed as 7.10.
